Test results reported in patent publication US10179125B2, “Substituted pyridines as bromodomain inhibitors” (Zenith Epigenetics Ltd., priority 2014, dated 2019).

Tests used:
[1] = system: hIL-6; test: Inhibition of hIL-6 mRNA transcription in LPS-stimulated U937 cells; assay type: cell-based, Human; details: Homo sapiens, U-937, PMA-differentiated U937 cells, 1 h pretreatment, LPS 3 h, read-out: IL-6 activity
Protocol: Human leukemic monocyte lymphoma U937 cells (CRL-1593.2) were plated at a density of 3.2×10^4 cells per well in a 96-well plate in 100 μL RPMI-1640 containing 10% FBS and penicillin/streptomycin, and differentiated into macrophages for 3 days in 60 ng/mL PMA ([…]) at 37° C. in 5% CO2 prior to the addition of compound. The cells were pretreated for 1 h with increasing concentrations of test compound in 0.1% DMSO prior to stimulation with 1 ug/mL lipopolysaccharide from Escherichia coli. Triplicate wells were used for each concentration. The cells were incubated at 37° C., 5% CO2 for 3 h before the cells were harvested. At time of harvest, media was removed and cells were rinsed in 200 μL PBS. Cells were harvested using the mRNA Catcher PLUS kit according to manufacturer's instructions. The eluted mRNA was then used in a one-step quantitative real-time PCR reaction using components of the RNA UltraSense™ One-Step Kit (Life Technologies) together with Applied Biosystems TaqMan® primer-probes for hIL-6 and Cyclophilin. Real-time PCR plates were run on a ViiA™7 real time PCR machine (Applied Biosystems), data was analyzed, normalizing the Ct values for hIL-6 to an internal control, prior to determining the fold expression of each sample, relative to the control.

[2] = molecular target: T1, Brd4 bromodomain 1 (BRD4(1)) (Homo sapiens, UniProt O60885); test: Inhibition of tetra-acetylated histone H4 binding to BET bromodomain (HTRF/FRET); details: His-tagged bromodomain 200 nM, biotinylated tetra-acetylated histone H4 peptide, 2 h room temperature
T1 construct: made in house; host or cells: E. coli BL21(DE3)
Protocol: Proteins were cloned and overexpressed with a N-terminal 6×His tag, then purified by nickel affinity followed by size exclusion chromatography. Briefly, E. coli BL21(DE3) cells were transformed with a recombinant expression vector encoding N-terminally Nickel affinity tagged bromodomains from Brd2, Brd3, Brd4. Cell cultures were incubated at 37° C. with shaking to the appropriate density and induced overnight with IPTG. The supernatant of lysed cells was loaded onto Ni-IDA column for purification, Eluted protein was pooled, concentrated and further purified by size exclusion chromatography. Fractions representing monomeric protein were pooled, concentrated, aliquoted, and frozen at −80° C. for use in subsequent experiments.
Binding of tetra-acetylated histone H4 and BET bromodomains was confirmed by a Homogenous Time Resolved Fluorescence Resonance Energy Transfer (HTRF®) method, N-terminally His-tagged bromodomains (200 nM) and biotinylated tetra-acetylated histone H4 peptide (25-50 nM, Millipore) were incubated in the presence of Europium Cryptate-labeled streptavidin (Cisbio Cat, #610SAKLB) and XL665-labeled monoclonal anti-His antibody (Cisbio Cat.1461HISXLB) in a white 96 well microtiter plate (Greiner). For inhibition assays, serially diluted test compound was added to these reactions in a 0.2% final concentration of DMSO. Duplicate wells were used for each concentration tested. Final buffer concentrations were 30 mM HEPES pH 7.4, 30 mM NaCl, 0.3 mM CHAPS, 20 mM phosphate pH 7.0, 320 mM KF, 0.08% BSA. After a 2 h incubation at room temperature, fluorescence was measured at 665 and 620 nm with a SynergyH4 plate reader (Biotek). The binding inhibitory activity was shown by a decrease in […] relative to 620 nm fluorescence. IC50 values were determined from a dose response curve.

[3] = system: cMYC; test: Inhibition of cMYC expression in MV4-11 cells (real-time PCR); assay type: cell-based, Human; details: Homo sapiens, 3 h, cMYC mRNA, read-out: c-myc activity
Protocol: MV4-11 cells (CRL-9591) were plated at a density of 2.5×10^4 cells per well in 96 well U-bottom plates and treated with increasing concentrations of test compound or DMSO (0.1%) in IMDM media containing 10% FBS and penicillin/streptomycin, and incubated for 3 h at 37° C. Triplicate wells were used for each concentration. Cells were pelleted by centrifugation and harvested using the mRNA Catcher PLUS kit according to manufacturer's instructions. The eluted mRNA isolated was then used in a one-step quantitative real-time PCR reaction, using components of the RNA UltraSense™ One-Step Kit (Life Technologies) together with Applied Biosystems TaqMan® primer-probes for cMYC and Cyclophilin, Real-time PCR plates were run on a ViiA™7 real time PCR machine (Applied Biosystems), data was analyzed, normalizing the Ct values for cMYC to an internal control, prior to determining the fold expression of each sample, relative to the control.

[4] = system: Human AML MV-4-11 cells; test: Inhibition of cell proliferation in MV4-11 cells (CellTiter Aqueous One); assay type: cell-based; details: 72 h; for IC50: Homo sapiens
Protocol: MV4-11 cells (CRL-9591) were plated at a density of 5×10^4 cells per well in 96 well flat bottom plates and treated with increasing concentrations of test compound or DMSO (0.1%) in IMDM media containing 10% FBS and penicillin/streptomycin. Triplicate wells were used for each concentration and a well containing only media was used as a control. Plates were incubated at 37° C., 5% CO2 for 72 h before adding 20 μL of the CellTiter Aqueous One Solution (Promega) to each well and incubated at 37° C., 5% CO2 for an additional 3-4 h. The absorbance was read at 490 nm in a spectrophotometer and the percentage of cell titer relative to DMSO-treated cells was calculated after correcting for background by subtracting the blank well's signal. IC50 values were calculated using the GraphPad Prism software.

Structure (SMILES) | IC50 [1] [nM] | IC50 [2] [nM] | IC50 [3] [nM] | IC50 [4] [nM] | Cell Proliferation activity [4]
COc1ncc(-c2c(C)noc2C)cc1Nc1cccc(F)c1 [Example 3, 5-(3,5-dimethylisoxazol-4-yl)-N-(3-fluorophenyl)-2-methoxypyridin-3-amine] | 300 to 3000 | ≤ 300 | 300 to 3000 | 3000 to 30000 | 
COc1ncc(-c2c(C)noc2C)cc1Oc1ccccc1 [Example 4, 4-(6-methoxy-5-phenoxypyridin-3-yl)-3,5-dimethylisoxazole] | 300 to 3000 | 300 to 3000 | 300 to 3000 | 3000 to 30000 | 
COc1ncc(-c2c(C)noc2C)cc1NC(C)c1ccccc1 (centres unmarked) [Example 5, 5-(3,5-dimethylisoxazol-4-yl)-2-methoxy-N-(1-phenylethyl)pyridin-3-amine] | 300 to 3000 | 300 to 3000 | 300 to 3000 | 300 to 3000 | 
COc1ncc(-c2c(C)noc2C)cc1Nc1cccc(C)c1 [Example 7, 5-(3,5-dimethylisoxazol-4-yl)-2-methoxy-N-(m-tolyl)pyridin-3-amine] | 300 to 3000 | ≤ 300 |  | 3000 to 30000 | 
COc1ncc(-c2c(C)noc2C)cc1NCc1ccc(Cl)s1 [Example 8, N-((5-chlorothiophen-2-yl)methyl)-5-(3,5-dimethylisoxazol-4-yl)-2-methoxypyridin-3-amine] | 300 to 3000 | ≤ 300 | 3000 to 30000 | 3000 to 30000 | 
COc1cccc(Nc2cc(-c3c(C)noc3C)cnc2OC)c1 [Example 13, 5-(3,5-dimethylisoxazol-4-yl)-2-methoxy-N-(3-methoxyphenyl)pyridin-3-amine] | 300 to 3000 | ≤ 300 |  | 300 to 3000 | 
COc1ncc(-c2c(C)noc2C)cc1Oc1cccnc1 [Example 15, 4-(6-methoxy-5-(pyridin-3-yloxy)pyridin-3-yl)-3,5-dimethylisoxazole] |  | 3000 to 30000 |  |  | 
COc1ncc(-c2c(C)noc2C)cc1NCc1ccc(C(F)(F)F)cc1 [Example 16, 5-(3,5-dimethylisoxazol-4-yl)-2-methoxy-N-(4-(trifluoromethyl)benzyl)pyridin-3-amine] |  | 300 to 3000 |  |  | 
COc1ncc(-c2c(C)noc2C)cc1NC(C)c1ccc(Cl)cc1 (centres unmarked) [Example 22, N-(1-(4-chlorophenyl)ethyl)-5-(3,5-dimethylisoxazol-4-yl)-2-methoxypyridin-3-amine] |  | 300 to 3000 | 3000 to 30000 | 3000 to 30000 | 
COc1ncc(-c2c(C)noc2C)cc1NCc1ccc(Br)cc1 [Example 23, N-(4-bromobenzyl)-5-(3,5-dimethylisoxazol-4-yl)-2-methoxypyridin-3-amine] |  | 300 to 3000 | 3000 to 30000 | 3000 to 30000 | 
Cc1noc(C)c1-c1cnc(OCc2ccccc2)c(NCc2ccccc2)c1 [Example 25, N-benzyl-2-(benzyloxy)-5-(3,5-dimethylisoxazol-4-yl)pyridin-3-amine] |  | 300 to 3000 |  | 3000 to 30000 | 
COc1ncc(-c2c(C)noc2C)cc1-c1c(C)noc1C [Example 34, 4,4′-(2-methoxypyridine-3,5-diyl)bis(3,5-dimethylisoxazole)] | 3000 to 30000 | ≤ 300 | 3000 to 30000 |  | 
COc1ncc(-c2c(C)noc2C)cc1NCc1ncccn1 [Example 48, 5-(3,5-dimethylisoxazol-4-yl)-2-methoxy-N-(pyrimidin-2-ylmethyl)pyridin-3-amine] | 300 to 3000 | ≤ 300 |  | 3000 to 30000 | 
COc1ncc(-c2c(C)noc2C)cc1NCc1ncccc1Cl [Example 49, N-((3-chloropyridin-2-yl)methyl)-5-(3,5-dimethylisoxazol-4-yl)-2-methoxypyridin-3-amine] |  | ≤ 300 |  |  | Not Active
CNc1ncc(-c2c(C)noc2C)cc1Nc1cccnc1C [Example 69, 5-(3,5-Dimethylisoxazol-4-yl)-N2-methyl-N3-(2-methylpyridin-3-yl)pyridine-2,3-diamine] |  | 300 to 3000 |  |  | 
